Measurements as given in paper PMC3904506 (International journal of biological macromolecules, 2013).
Counter-ions that a name gives are not always drawn. Like-named read-outs stand apart in the source and are kept apart here.

How the values were obtained:
CDA variant K27/A70 [1] = target: T1, CDA variant K27/A70 (Homo sapiens, UniProt P32320); assay: Oxidative resistance experiments, K27/A70 variant; assay type: biochemical
CDA variant Q27/A70 [2] = target: T2, CDA variant Q27/A70 (Homo sapiens, UniProt P32320, K27Q); assay: Oxidative resistance experiments, Q27/A70 variant; assay type: biochemical
T2 sequence (P32320 whole entry K27Q): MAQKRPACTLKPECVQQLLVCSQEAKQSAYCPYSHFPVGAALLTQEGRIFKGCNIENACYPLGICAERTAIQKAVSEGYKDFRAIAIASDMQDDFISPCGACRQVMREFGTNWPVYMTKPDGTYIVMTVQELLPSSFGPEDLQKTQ

CDA variant K27/T70 [3] = target: T3, CDA variant K27/T70 (Homo sapiens, UniProt P32320, A70T); assay: Oxidative resistance experiments, K27/T70 variant; assay type: biochemical
T3 sequence (P32320 whole entry A70T): as the sequence (P32320 whole entry K27Q) above, with Q27K, A70T counted along it

CDA mutant E24Q [4] = target: T4, CDA mutant E24Q (Homo sapiens, UniProt P32320, E24Q); assay: Oxidative resistance experiments, E24Q mutant; assay type: biochemical
T4 sequence (P32320 whole entry E24Q): as the sequence (P32320 whole entry K27Q) above, with E24Q, Q27K counted along it

CDA variant K27/A70 [5] = target: T1, CDA variant K27/A70; assay: Inhibition of deoxycytidine deamination, K27/A70 variant; details: double-reciprocal plots, substrate deoxycytidine
CDA variant Q27/A70 [6] = target: T2, CDA variant Q27/A70; assay: Inhibition of deoxycytidine deamination, Q27/A70 variant
CDA variant K27/T70 [7] = target: T3, CDA variant K27/T70; assay: Inhibition of deoxycytidine deamination, K27/T70 variant
CDA variant K27/A70 [8] = target: T1, CDA variant K27/A70; assay: CDA activity assay, substrate kinetics, K27/A70 variant
CDA mutant E24Q [9] = target: T4, CDA mutant E24Q; assay: Inhibition of deoxycytidine deamination, E24Q mutant
CDA mutant E24Q [10] = target: T4, CDA mutant E24Q; assay: CDA activity assay, substrate kinetics, E24Q mutant; details: 37 °C
CDA variant Q27/A70 [11] = target: T2, CDA variant Q27/A70; assay: CDA activity assay, substrate kinetics, Q27/A70 variant; details: 37 °C
CDA variant K27/T70 [12] = target: T3, CDA variant K27/T70; assay: CDA activity assay, substrate kinetics, K27/T70 variant; details: 37 °C
[13] = 100 μM NaOCl, 60 min of incubation, 37 °C
[14] = read-out: K0.5 (concentration at 50% inhibition of activity), NaOCl
[15] = Q27/A70, double-reciprocal plots, substrate deoxycytidine
[16] = K27/T70, double-reciprocal plots, substrate deoxycytidine

SMILES: [Na+].[O-]Cl [NaOCl, sodium hypochlorite]
- residual activity (CDA variant K27/A70 [1]; [13]): 32%
- IC50 (CDA variant K27/A70 [1]; [14]): 60 µM
- residual activity (CDA variant Q27/A70 [2]; [13]): 49%
- IC50 (CDA variant Q27/A70 [2]; [14]): 100 µM
- residual activity (CDA variant K27/T70 [3]; [13]): 27.5%
- residual activity (CDA mutant E24Q [4]; NaOCl (100 μM, Fig. 6A), 60 min of incubation): 97%
- IC50 (CDA mutant E24Q [4]; [14]): 1000 µM

SMILES: Nc1ncc([C@@H]2O[C@H](CO)[C@@H](O)[C@H]2O)c(=O)[nH]1 [Pseudoisocytidine-HCl]
- Ki (CDA variant K27/A70 [5]): 28 µM
- Ki (CDA variant Q27/A70 [6]; [15]): 46 µM
- Ki (CDA variant K27/T70 [7]; [16]): 60 µM

SMILES: Nc1ccn([C@H]2C[C@H](O)[C@@H](CO)O2)c(=O)n1 [CdR, 2′-deoxycytidine]
- enthalpy of binding ΔH (van't Hoff plot) (CDA variant K27/A70 [8]; temperature range 10–35 °C): 3.57 kcal/mol
- enthalpy of binding ΔH (van't Hoff plot) (CDA variant K27/A70 [8]; temperature range 35–80 °C): -8.88 kcal/mol

SMILES: OO [H2O2, hydrogen peroxide]
- IC50 (CDA variant K27/A70 [1]; read-out: K0.5, H2O2): 23500 µM
- IC50 (CDA variant Q27/A70 [2]; read-out: K0.5, H2O2): 15000 µM
- IC50 (CDA variant K27/T70 [3]; read-out: K0.5, H2O2): 11500 µM
- IC50 (CDA mutant E24Q [4]; read-out: K0.5, H2O2): 8000 µM

SMILES: Nc1ccn([C@@H]2O[C@H](CO)[C@@H](O)[C@H]2O)c(=O)c1 [3-Deaza-cytidine]
- Ki (CDA mutant E24Q [9]): 2.9 µM
- Ki (CDA variant Q27/A70 [6]): 1.8 µM
- Ki (CDA variant K27/T70 [7]): 2.4 µM

SMILES: Nc1ncn([C@@H]2O[C@H](CO)[C@@H](O)[C@@H]2O)c(=O)n1 [Fazarabine, 1-β-D-arabinofuranosyl-5-azacytosine]
- increase in catalytic efficiency with respect to the Q27/A70 and K27/T70 variants (CDA variant K27/A70 [8]): 3 fold

SMILES: Nc1ccn([C@H]2CC[C@@H](CO)O2)c(=O)n1 [2′,3′-CdR, 2′,3′-dideoxycytidine]
- Km (CDA mutant E24Q [10]): not substrate
- Km (CDA variant K27/A70 [8]; 37 °C): not substrate
- Km (CDA variant Q27/A70 [11]): not substrate
- Km (CDA variant K27/T70 [12]): not substrate

SMILES: O=C1NC(O)CCN1[C@H]1C[C@H](O)[C@@H](CO)O1 (stereo partly drawn) [Tetrahydro-2′-deoxyuridine]
- Ki (CDA variant K27/A70 [5]): 0.04 µM
- Ki (CDA variant Q27/A70 [6]; [15]): 0.26 µM
- Ki (CDA variant K27/T70 [7]; [16]): 0.26 µM
